Laboratory results: US11000033B2, “Ketone or oxime compound, and herbicide” (NISSAN CHEMICAL CORPORATION, priority 2014, dated 2021)

How the values were obtained:
Format in all cases: in vivo
[1] = tested on: Echinochloa oryzacola Vasing.; assay: Test Example 1: herbicidal activity, application before weed generation in submerged conditions (symbol A); conditions: application herbicide amount 320 g/ha
How it was run: (§1)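 Steps: alluvial soil flooded to 4 cm; weed seeds sown together; rice seedlings (2.5 leaf) transplanted; diluted emulsion applied to water surface the same day as sowing; plants grown at 25–30 °C in greenhouse; herbicidal effect rated on a 0–5 scale at 3 weeks.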

Scirpus juncoides = assay: Test Example 1: herbicidal activity, application before weed generation in submerged conditions (symbol B); conditions: application herbicide amount 320 g/ha
How it was run: as §1

transplanted rice plant = assay: Test Example 1: effect on crop, application before weed generation in submerged conditions (symbol a); conditions: application herbicide amount 320 g/ha
How it was run: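 Rice at 2.5 leaf stage transplanted into submerged soil (4 cm depth) sown with three weed species; herbicide applied before weed emergence.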

[2] = tested on: directly sowed rice plant; assay: Test Example 3: effect on crop by foliage application, Wagner pot (symbol b); conditions: application herbicide amount 320 g/ha; for b (directly sowed rice plant) effect on crop grade: Table 24
How it was run: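 Steps: fill a 1/10000-are Wagner pot with alluvial soil; add water and mix to submerge at 0.1–0.5 cm depth; sow rice plus Echinochloa crus-galli var. crus-galli, Leptochloa chinensis and Cyperus difformis; grow in a 25–30 °C greenhouse.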

Setaria viridis = assay: Test Example 4: herbicidal effect by soil treatment (symbol G); conditions: for G: Setaria viridis, herbicidal effect grade: 320 g/ha; for Herbicidal effect grade, G: Setaria viridis: application herbicide amount 320 g/ha
How it was run: (§2)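 Seeds were sown in sterilized diluvial soil, covered with about 1.5 cm of soil, and the soil surface was sprayed with a water-diluted emulsion of the compound at a predetermined rate. Plants grew in a greenhouse at 25° C. to 30° C.; effects were scored visually 3 weeks after application.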

Apera spica-venti [3] = assay: Test Example 4: herbicidal effect by soil treatment (symbol L); conditions: for L: Apera spica-venti, herbicidal effect grade: 320 g/ha; for Herbicidal effect grade, L: Apera spica-venti: application herbicide amount 320 g/ha
How it was run: as §2

Abutilon theophrasti = assay: Test Example 4: herbicidal effect by soil treatment (symbol M); conditions: for M: Abutilon theophrasti, herbicidal effect grade: 320 g/ha; for Herbicidal effect grade, M: Abutilon theophrasti: application herbicide amount 320 g/ha
How it was run: as §2

Stellaria media = assay: Test Example 4: herbicidal effect by soil treatment (symbol P); conditions: for P: Stellaria media, herbicidal effect grade: 320 g/ha
How it was run: as §2

Veronica persica = assay: Test Example 4: herbicidal effect by soil treatment (symbol R); conditions: for R: Veronica persica, herbicidal effect grade: 320 g/ha; for Herbicidal effect grade, R: Veronica persica: application herbicide amount 320 g/ha
How it was run: as §2

Digitaria ciliaris = assay: Test Example 5: herbicidal effect by foliage application, plastic box (symbol F); conditions: 320 g/ha, 3 weeks after application
How it was run: (§3)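 Emulsion formulation, diluted with water to the intended rate, was applied uniformly to leaves by small sprayer. Recipients were 14-day greenhouse-grown seedlings (25° C. to 30° C.). Assessment followed at 3 weeks.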

Avena fatua = assay: Test Example 5: herbicidal effect by foliage application, plastic box (symbol I); conditions: 320 g/ha, 3 weeks after application
How it was run: as §3

Lolium multiflorum Lam. = assay: Test Example 5: herbicidal effect by foliage application, plastic box (symbol K); conditions: 320 g/ha, 3 weeks after application
How it was run: as §3

Apera spica-venti [4] = assay: Test Example 5: herbicidal effect by foliage application, plastic box (symbol L); conditions: 320 g/ha, 3 weeks after application
How it was run: as §3

Galium spurium = assay: Test Example 5: herbicidal effect by foliage application, plastic box (symbol Q); conditions: 320 g/ha, 3 weeks after application
How it was run: as §3

wheat = assay: Test Example 5: effect on crop by foliage application, plastic box (symbol e); conditions: 320 g/ha, 3 weeks after application
How it was run: (§4)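 Plants were raised from seed in a greenhouse (25° C. to 30° C.) after sowing in a plastic box of sterilized diluvial soil.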

rapeseed = assay: Test Example 5: effect on crop by foliage application, plastic box (symbol g); conditions: 320 g/ha, 3 weeks after application
How it was run: as §4

Monochoria vaginalis = assay: Test Example 1: herbicidal activity, application before weed generation in submerged conditions (symbol C); conditions: application herbicide amount 320 g/ha
How it was run: as §1

Structure (SMILES)	Herbicidal effect grade, A: Echinochloa oryzacola Vasing. [1]	Herbicidal effect grade, B: Scirpus juncoides (Scirpus juncoides)	Effect grade on crop, a: transplanted rice plant (transplanted rice plant)	effect on crop b (directly sowed rice plant), grade 0-5 [2]	G: Setaria viridis, herbicidal effect grade (Setaria viridis)	L: Apera spica-venti, herbicidal effect grade (Apera spica-venti [3])	M: Abutilon theophrasti, herbicidal effect grade (Abutilon theophrasti)	P: Stellaria media, herbicidal effect grade (Stellaria media)	R: Veronica persica, herbicidal effect grade (Veronica persica)	F: Digitaria ciliaris, herbicidal effect (criteria 0-5) (Digitaria ciliaris)	I: Avena fatua, herbicidal effect (criteria 0-5) (Avena fatua)	K: Lolium multiflorum Lam., herbicidal effect (criteria 0-5) (Lolium multiflorum Lam.)	L: Apera spica-venti, herbicidal effect (criteria 0-5) (Apera spica-venti [4])	Q: Galium spurium, herbicidal effect (criteria 0-5) (Galium spurium)	e: wheat, effect on crop (criteria 0-5) (wheat)	g: rapeseed, effect on crop (criteria 0-5) (rapeseed)	Herbicidal effect grade, C: Monochoria vaginalis (Monochoria vaginalis)	A (Echinochloa oryzacola Vasing.) herbicidal effect grade [1]	B (Scirpus juncoides) herbicidal effect grade (Scirpus juncoides)	C (Monochoria vaginalis) herbicidal effect grade (Monochoria vaginalis)	other results
CC(CC1CC(O)=C(c2c(C)cc(C)cc2C)C1=O)=NOCC#N (centres unmarked) [1-102]	5 (Herbicidal ratio of 90% or more (almost completely withered))	3 (Herbicidal ratio of 40% or higher and lower than 70%)	5 (Herbicidal ratio of 90% or more (almost completely withered))	5 (Herbicidal ratio of 90% or more (almost completely withered))	5 (Herbicidal ratio of 90% or more (almost completely withered))	5 (Herbicidal ratio of 90% or more (almost completely withered))	0 (Herbicidal ratio of 5% or lower (almost no effect))	0 (Herbicidal ratio of 5% or lower (almost no effect))	0 (Herbicidal ratio of 5% or lower (almost no effect))	5 (Herbicidal ratio of 90% or more (almost completely withered))	5 (Herbicidal ratio of 90% or more (almost completely withered))	5 (Herbicidal ratio of 90% or more (almost completely withered))	5 (Herbicidal ratio of 90% or more (almost completely withered))	0 (Herbicidal ratio of 5% or lower (almost no effect))	4 (Herbicidal ratio of 70% or higher and lower than 90%)	2 (Herbicidal ratio of 20% or higher and lower than 40%)					
CCCCCCCCS(=O)(=O)OC1=C(c2c(C)cc(C)cc2C)C(=O)C(CC(C)=NOC)C1 (centres unmarked) [1-107]	5 (Herbicidal ratio of 90% or more (almost completely withered))	4 (Herbicidal ratio of 70% or higher and lower than 90%)	3 (Herbicidal ratio of 40% or higher and lower than 70%)	5 (Herbicidal ratio of 90% or more (almost completely withered))	3 (Herbicidal ratio of 40% or higher and lower than 70%)	5 (Herbicidal ratio of 90% or more (almost completely withered))	0 (Herbicidal ratio of 5% or lower (almost no effect))	0 (Herbicidal ratio of 5% or lower (almost no effect))	0 (Herbicidal ratio of 5% or lower (almost no effect))	4 (Herbicidal ratio of 70% or higher and lower than 90%)	5 (Herbicidal ratio of 90% or more (almost completely withered))	5 (Herbicidal ratio of 90% or more (almost completely withered))	5 (Herbicidal ratio of 90% or more (almost completely withered))		2 (Herbicidal ratio of 20% or higher and lower than 40%)	4 (Herbicidal ratio of 70% or higher and lower than 90%)	1 (Herbicidal ratio of 5% or higher and lower than 20%)				
CON=C(CC1CC(O)=C(c2c(C)cc(C)cc2C)C1=O)c1ccc(F)cc1 (centres unmarked) [1-133]	4 (Herbicidal ratio of 70% or higher and lower than 90%)	0 (Herbicidal ratio of 5% or lower (almost no effect))	1 (Herbicidal ratio of 5% or higher and lower than 20%)	0 (Herbicidal ratio of 5% or lower (almost no effect))	4 (Herbicidal ratio of 70% or higher and lower than 90%)		0 (Herbicidal ratio of 5% or lower (almost no effect))	0 (Herbicidal ratio of 5% or lower (almost no effect))	0 (Herbicidal ratio of 5% or lower (almost no effect))	0 (Herbicidal ratio of 5% or lower (almost no effect))	3 (Herbicidal ratio of 40% or higher and lower than 70%)	5 (Herbicidal ratio of 90% or more (almost completely withered))	2 (Herbicidal ratio of 20% or higher and lower than 40%)	0 (Herbicidal ratio of 5% or lower (almost no effect))	0 (Herbicidal ratio of 5% or lower (almost no effect))	4 (Herbicidal ratio of 70% or higher and lower than 90%)	0 (Herbicidal ratio of 5% or lower (almost no effect))				
CC#Cc1cc(C)c(C2=C(OC(=O)COc3ccccc3)CC(CC(C)=NOCC(F)(F)F)C2=O)c(C)c1 (centres unmarked) [9-013]																		5 (Herbicidal ratio of 90% or more (almost completely withered))	5 (Herbicidal ratio of 90% or more (almost completely withered))	1 (Herbicidal ratio of 5% or higher and lower than 20%)	a (transplanted rice plant) effect on crop grade (transplanted rice plant): 5 (Herbicidal ratio of 90% or more (almost completely withered)); b (directly sowed rice plant) effect on crop grade [2]: 5 (Herbicidal ratio of 90% or more (almost completely withered)); Herbicidal effect grade, G: Setaria viridis (Setaria viridis): 5 (Herbicidal ratio of 90% or more (almost completely withered)); Herbicidal effect grade, L: Apera spica-venti (Apera spica-venti [3]): 5 (Herbicidal ratio of 90% or more (almost completely withered)); Herbicidal effect grade, M: Abutilon theophrasti (Abutilon theophrasti): 3 (Herbicidal ratio of 40% or higher and lower than 70%); Herbicidal effect grade, P: Stellaria media (Stellaria media; application herbicide amount 320 g/ha): 0 (Herbicidal ratio of 5% or lower (almost no effect)); Herbicidal effect grade, R: Veronica persica (Veronica persica): 4 (Herbicidal ratio of 70% or higher and lower than 90%); F: Digitaria ciliaris, herbicidal effect grade (Digitaria ciliaris): 5 (Herbicidal ratio of 90% or more (almost completely withered)); I: Avena fatua, herbicidal effect grade (Avena fatua): 5 (Herbicidal ratio of 90% or more (almost completely withered)); K: Lolium multiflorum Lam., herbicidal effect grade (Lolium multiflorum Lam.): 5 (Herbicidal ratio of 90% or more (almost completely withered)); L: Apera spica-venti, herbicidal effect grade (Apera spica-venti [4]): 5 (Herbicidal ratio of 90% or more (almost completely withered)); e: wheat, effect on crop grade (wheat): 4 (Herbicidal ratio of 70% or higher and lower than 90%); g: rapeseed, effect on crop grade (rapeseed): 4 (Herbicidal ratio of 70% or higher and lower than 90%)
COCCON=C(C)CC1CC(O)=C(c2c(C)cc(Br)cc2C)C1=O (centres unmarked) [9-017]																		4 (Herbicidal ratio of 70% or higher and lower than 90%)	2 (Herbicidal ratio of 20% or higher and lower than 40%)	0 (Herbicidal ratio of 5% or lower (almost no effect))	a (transplanted rice plant) effect on crop grade (transplanted rice plant): 4 (Herbicidal ratio of 70% or higher and lower than 90%); b (directly sowed rice plant) effect on crop grade [2]: 5 (Herbicidal ratio of 90% or more (almost completely withered)); Herbicidal effect grade, G: Setaria viridis (Setaria viridis): 0 (Herbicidal ratio of 5% or lower (almost no effect)); Herbicidal effect grade, L: Apera spica-venti (Apera spica-venti [3]): 0 (Herbicidal ratio of 5% or lower (almost no effect)); Herbicidal effect grade, M: Abutilon theophrasti (Abutilon theophrasti): 0 (Herbicidal ratio of 5% or lower (almost no effect)); Herbicidal effect grade, R: Veronica persica (Veronica persica): 0 (Herbicidal ratio of 5% or lower (almost no effect)); F: Digitaria ciliaris, herbicidal effect grade (Digitaria ciliaris): 4 (Herbicidal ratio of 70% or higher and lower than 90%); I: Avena fatua, herbicidal effect grade (Avena fatua): 4 (Herbicidal ratio of 70% or higher and lower than 90%); K: Lolium multiflorum Lam., herbicidal effect grade (Lolium multiflorum Lam.): 5 (Herbicidal ratio of 90% or more (almost completely withered)); L: Apera spica-venti, herbicidal effect grade (Apera spica-venti [4]): 3 (Herbicidal ratio of 40% or higher and lower than 70%); Q: Galium spurium, herbicidal effect grade (Galium spurium): 0 (Herbicidal ratio of 5% or lower (almost no effect)); e: wheat, effect on crop grade (wheat): 3 (Herbicidal ratio of 40% or higher and lower than 70%); g: rapeseed, effect on crop grade (rapeseed): 3 (Herbicidal ratio of 40% or higher and lower than 70%)
